Converted amounts (≈) assume the structure as drawn.
Experiments:
HEPG2 cell line = assay: Annexin V-FITC apoptosis detection by flow cytometry; format: cell-based, human; details: HEPG2, 3.8 µg/mL, 48 h; control 16.73
Procedure: Furthermore, both compounds 8 and 14 were evaluated for apoptosis using flow cytometry on the HEPG2 cell line. The % rate of total apoptosis for control, compound 8, and compound 14 were 16.73, 22.44, and 48.36 (%), respectively.
Liver cancer cells (HEPG2) were seeded in RPMI-1640 media at a density of 250 X 10^3 cells/mL. Both cell cycle and apoptosis evaluations were performed at 3.8 µg/mL for both compounds 8 and 14. The detailed method is described in the Supplementary data (SI 3).
Annexin V-FITC apoptosis detection kit (Beckman Coulter, California, USA) was used as the manufacturer’s recommendation by using (Beckman Coulter EPICS XL flow cytometer, California, USA). […]
Cell cycle evaluation was performed at 3.8 µg/mL of both compounds […]. After 48 h, the cells were harvested, stained and DNA content was quantified.
The most promising cytotoxic compounds (8 and 14) were further assessed for their inhibitory potential against both EGFR Wild and EGFRT T790M. […] The amount of EGFR required for the assay was calculated and the enzyme was diluted to 1 ng/μL with Kinase assay buffer. […] The plate was incubated at room temperature for 15 minutes and luminescence was measured using the microplate reader.

VERO = assay: Cytotoxicity screening, SRB assay, normal Vero cells; format: cell-based; details: 48 h, normal cell line; for IC50: Chlorocebus sabaeus, Vero
Procedure: In this study, a panel of cell lines was examined for their chemosensitivity. Different concentrations of the synthesised pyridines and pyrimidine derivatives were used in this study (5, 12.5, 25, and 50 µg/mL) for all the examined cell lines. In this study, breast tumour cell line (MCF7), hepatocellular carcinoma cell line (HEPG2), larynx cell line (HEP2), lung cancer cell line (H460), colon cancer cell line (HCT116 and Caco2), hypopharyngeal cell line (FADU), and normal Vero cell line were applied. The full methodology is described in the Supplementary data (SI 1).
SI 1: Cytotoxicity screening against human cancer cell lines
In this study, a panel of cell lines was examined for their chemosensitivity. Different concentrations of the synthesized pyridines and pyrimidines derivatives were used in this study (5, 12.5, 25, and 50 µg/ml) for all the examined cell lines. The most sensitive cell line to the treatment regimen was selected and subjected to further investigations to explore the mechanism of this interaction. Human breast tumor cell line (MCF7), human hepatocellular carcinoma cell line (HEPG2), human larynx cell line (HEP2), human lung cancer cell line (H460), human colon cancer cell line (HCT116 and Caco2), human hypopharyngeal cell line (FaDu), and normal cell line Vero were used in this study. It was obtained from the American Type Culture Collection (ATCC, Minnesota, USA). The tumor cell line was maintained at National Cancer Institute (NCI), Cairo, Egypt.
The antitumor activities of pyridines and pyrimidines derivatives and all tested cell lines were evaluated by sulphorhodamine-B (SRB) assay 1. Briefly, cells were seeded at a density of 3 × 10^3 cells/well in 96-well microtiter plates. They were left to attach for 24 h before incubation with drugs. Next, cells were treated with different concentrations of 5, 12.5, 25, and 50 µg/ml for MCF7, HEPG2, HEP2, HCT116, Caco2, H460, FaDu, and Vero cells. For each concentration, three wells were used and incubation was continued for 48 h. DMSO was used as a control vehicle (1 % v/v). At the end of incubation, cells were fixed with 20 % trichloroacetic acid and stained with 0.4 % SRB dye. The optical density (O.D.) of each well was measured spectrophotometrically at 570 nm using an ELISA microplate reader (TECAN sunrise™, Germany). The mean survival fraction at each drug concentration was calculated as follows: […]
O.D. of the treated cells/O.D. of the control cells. The IC50 (concentration that produces 50% of cell growth inhibition) value of each drug was calculated using sigmoidal dose-response curve-fitting models (Graph Pad Prizm software, version 5) 1.

EGFR (T790M) = EGFR (T790M) (Homo sapiens, UniProt P00533, T790M); assay: EGFR kinase (T790M) inhibition assay, Kinase-Glo MAX
EGFR (T790M), sequence (P00533 25-1210 T790M): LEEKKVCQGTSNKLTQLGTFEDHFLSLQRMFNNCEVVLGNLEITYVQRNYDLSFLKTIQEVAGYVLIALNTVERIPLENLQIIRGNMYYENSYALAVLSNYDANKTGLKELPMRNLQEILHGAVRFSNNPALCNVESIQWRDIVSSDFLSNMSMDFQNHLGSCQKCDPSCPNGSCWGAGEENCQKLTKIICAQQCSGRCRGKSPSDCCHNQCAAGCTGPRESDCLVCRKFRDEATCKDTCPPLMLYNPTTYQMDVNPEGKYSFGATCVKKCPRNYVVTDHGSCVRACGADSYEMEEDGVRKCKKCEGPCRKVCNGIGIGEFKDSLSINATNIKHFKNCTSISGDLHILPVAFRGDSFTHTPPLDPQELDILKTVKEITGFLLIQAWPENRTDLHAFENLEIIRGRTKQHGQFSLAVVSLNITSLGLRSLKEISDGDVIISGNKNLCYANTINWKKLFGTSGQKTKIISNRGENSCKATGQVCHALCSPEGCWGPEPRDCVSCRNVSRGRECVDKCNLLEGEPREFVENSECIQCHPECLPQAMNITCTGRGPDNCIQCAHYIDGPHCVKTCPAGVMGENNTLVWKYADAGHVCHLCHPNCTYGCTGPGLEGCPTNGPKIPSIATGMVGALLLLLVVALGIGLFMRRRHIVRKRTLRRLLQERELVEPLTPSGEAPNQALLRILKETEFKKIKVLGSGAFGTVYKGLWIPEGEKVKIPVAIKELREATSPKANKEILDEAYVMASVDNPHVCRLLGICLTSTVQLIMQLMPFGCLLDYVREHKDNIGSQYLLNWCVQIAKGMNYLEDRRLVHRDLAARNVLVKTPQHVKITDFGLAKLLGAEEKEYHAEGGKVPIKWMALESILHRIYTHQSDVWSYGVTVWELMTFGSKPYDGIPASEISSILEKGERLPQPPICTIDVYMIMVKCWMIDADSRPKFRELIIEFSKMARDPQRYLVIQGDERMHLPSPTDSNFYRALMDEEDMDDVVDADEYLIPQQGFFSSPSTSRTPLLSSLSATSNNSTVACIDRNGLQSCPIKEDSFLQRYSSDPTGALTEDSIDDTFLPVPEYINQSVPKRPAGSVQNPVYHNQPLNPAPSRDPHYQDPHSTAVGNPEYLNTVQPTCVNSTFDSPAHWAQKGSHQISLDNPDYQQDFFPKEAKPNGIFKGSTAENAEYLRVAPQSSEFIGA
Procedure: The reagent, Kinase-Glo MAX, was used[50], and luminescence was detected by applying the microplate reader.
The assay protocol was carried out by adding 25 μL of the master mixture: (6 μL Kinase assay buffer + 1 μL ATP (500 μM) + 1 μL PTK substrate + 17 μL water) to each well. Thereafter, 5 μL of the inhibitor solution was added to each well labeled as “test inhibitor”. Meanwhile, for the “positive control" and “blank”, 5 μL of the same solution without inhibitor (inhibitor buffer) was added. To the wells designated as "blank", add 20 μL of Kinase assay buffer. The amount of EGFR required for the assay was calculated and the enzyme was diluted to 1 ng/μL with Kinase assay buffer. The reaction was initiated by adding 20 μL of diluted EGFR enzyme to the wells designated as “positive control” and "test inhibitor control". The wells were incubated at 30°C for 40 minutes, then 50 μL of Kinase-Glo Max reagent was added to each well. The plate was incubated at room temperature for 15 minutes and luminescence was measured using the microplate reader.

HEPG2 cells = assay: Cell cycle DNA index analysis by flow cytometry; format: cell-based, human; details: HEPG2, 3.8 µg/mL, 48 h; for cells in G2/M phase: control 5.57%; for cells in G0/G1: control 92.7%

| SMILES | % rate of total apoptosis (HEPG2 cell line) | IC50 (VERO) | VERO IC50 (VERO) | IC50 (EGFR (T790M)) | cells in G2/M phase (HEPG2 cells) | cells in G0/G1 (HEPG2 cells) |
| --- | --- | --- | --- | --- | --- | --- |
| Oc1n[nH]c2nc(-c3ccco3)cc(-c3cccs3)c12 [Compound 8] | 22.44% | 4.3 µg/mL (≈ 15.2 µM) | 3.90 µg/mL | 27 ± 2 nM | 34.4% | 61.4% |
| N#Cc1c(-c2cccs2)cc(-c2ccco2)[nH]c1=O [Compound 14] | 48.36% | 4 µg/mL (≈ 14.9 µM) | 4.60 µg/mL | 156 ± 9 nM | 25.9% | 69.8% |

— paper PMC9635468, “Biological evaluation, docking studies, and in silico ADME prediction of some pyrimidine and pyridine derivatives as potential EGFR^WT and EGFR^T790M inhibitors” (Journal of Enzyme Inhibition and Medicinal Chemistry, 2022)
